Reference: PubChem BioAssay AID1963863 (Molecular Pharmacology Branch, DTP, NCI, 2024)

Tested on: 931267-113-T-J1-PDC KRAS spheroid with HUVEC/MSC, viability
Experiment: Anticancer human tumor 931267-113-T-J1-PDC patient-derived colon adenocarcinoma cell line growth inhibition [KRAS2]
Conditions: for IC50: curve of first compound; for viability, T/C: stronger effect = lower value
From the text: Multicellular complex tumor spheroid response to RAS pathway inhibitors in combination with a targeted agents in patient-derived cell lines with oncogenic KRAS variants from multiple cancer types
A high-throughput screen of multi-cell type tumor spheroids was designed to identify active combinations of targeted small molecules and KRAS pathway inhibitors. Complex spheroids include a stromal component modeled by human endothelial cells (HUVEC) and fibroblasts modeled by human mesenchymal stem cells (MSCs). The concentration ranges selected for each drug and investigational agent were based upon clinically achievable concentrations if the clinical Cmax of the agent was known.
Compounds. The drugs and investigational agents: BI-3406 (NSC825286), BAY-293 (NSC824723), batoprotafib (TNO155; NSC825523), sotorasib (AMG 510; NSC818433), MRTX1257 (NSC819558), elimusertib (BAY 1895344; NSC800525), molibresib (GSK525762; NSC774829), temuterkib (LY3214996; NSC803410), venetoclax (NSC766270), alisertib (NSC759677), olaparib (NSC753686), talazoparib (NSC767125), erdafitinib (NSC781556), ipatasertib (NSC767898), cabozantinib (NSC761068), nintedanib (NSC756659), abemaciclib (NSC768073), docetaxel (NSC628503), trametinib (NSC758246), and sapanisertib (NSC764658) were obtained from the National Cancer Institute (NCI) Developmental Therapeutics Program Chemical Repository. The FDA-approved anticancer drug set is available from the Developmental Therapeutics Program. […] The stock solutions were prepared in dimethyl sulfoxide (DMSO, Sigma-Aldrich, St. Louis, MO, cat. D2650) at 800-fold the tested concentration and stored at -70 degrees C prior to their use. All drugs and investigational agents were tested over a range starting from a high concentration at or near the clinical Cmax and decreasing in half-log increments. If the clinical Cmax for an agent had not been determined, the highest concentration tested was 10 microM.
Cell Culture. All cells were maintained in an incubator at 37 degrees C and 5% CO2 with 95% humidity. The PDC lines were cultured according to standard operating procedures established by the NCI PDMR (https://pdmr.cancer.gov/sops/default.htm). Briefly, all PDCs were thawed and cultured in Matrigel-coated flasks prepared with a working solution of 1X Ham's F-12 nutrient mix, without supplementation (Invitrogen, Waltham, MA, cat. 11765054), 100 U/mL penicillin-streptomycin (Invitrogen, cat. 15140122), and 2.5% Matrigel (Corning Inc., Corning, NY, cat. 354248) for the first three passages. All PDCs were cultured in complete DMEM/F-12 media containing advanced DMEM/F-12 (Invitrogen, cat. 12634028), 4.9% defined fetal bovine serum, heat inactivated (HyClone Laboratories Inc., Logan, UT, cat. SH30070.03HI), 389 ng/mL hydrocortisone (Sigma-Aldrich, cat. H4001), 9.7 ng/mL human EGF recombinant protein (Invitrogen, cat. PHG0313), 23.4 microg/mL adenine (Sigma-Aldrich, cat. A2786), 97.3 U/mL penicillin-streptomycin (Invitrogen, cat. 15140122), 1.9 mM L-glutamine (Invitrogen, cat. 25030081), and 9.7 microM Y-27632 dihydrochloride (Tocris Bioscience, Bristol, United Kingdom, cat. 1254). The PDCs were cultured in complete DMEM/F12 media without 9.7 microM Y-27632 dihydrochloride for at least two passages prior to the screen. The established cell line HOP-62 was cultured in RPMI 1640 medium, HEPES (Invitrogen, cat. 22400105) with 10% defined fetal bovine serum (HyClone Laboratories Inc., cat. SH30070.03) and 2 mM L-glutamine (Invitrogen, cat. 25030081). The pooled donor HUVEC were cultured in endothelial cell growth medium 2 (PromoCell, Heidelberg, Germany, cat. C-22011) and the hMSC were cultured in mesenchymal stem cell growth medium 2 (PromoCell, cat. C-28009). For all experiments, HUVEC and hMSC were used at passages </=5, while the malignant cell lines were used at passages </=15. […]

[1] = second compound 0.1 µM, first compound 0.01 µM
[2] = second compound 0.1 µM, first compound 0.0316 µM
[3] = second compound 0.1 µM, first compound 0.1 µM
[4] = second compound 0.1 µM, first compound 0.316 µM
[5] = second compound 0.1 µM, first compound 1 µM
[6] = second compound 0.1 µM, first compound 3.16 µM
[7] = second compound 0.316 µM, first compound 0.01 µM
[8] = second compound 0.316 µM, first compound 0.0316 µM
[9] = second compound 0.316 µM, first compound 0.1 µM
[10] = second compound 0.316 µM, first compound 0.316 µM
[11] = second compound 0.316 µM, first compound 1 µM
[12] = second compound 0.316 µM, first compound 3.16 µM
[13] = second compound 1 µM, first compound 0.01 µM
[14] = second compound 1 µM, first compound 0.0316 µM
[15] = second compound 1 µM, first compound 0.1 µM
[16] = second compound 1 µM, first compound 0.316 µM
[17] = second compound 1 µM, first compound 1 µM
[18] = second compound 1 µM, first compound 3.16 µM
[19] = second compound 3.16 µM, first compound 0.01 µM
[20] = second compound 3.16 µM, first compound 0.0316 µM
[21] = second compound 3.16 µM, first compound 0.1 µM
[22] = second compound 3.16 µM, first compound 0.316 µM
[23] = second compound 3.16 µM, first compound 1 µM
[24] = second compound 3.16 µM, first compound 3.16 µM
[25] = second compound 10 µM, first compound 0.01 µM
[26] = second compound 10 µM, first compound 0.0316 µM
[27] = second compound 10 µM, first compound 0.1 µM
[28] = second compound 10 µM, first compound 0.316 µM
[29] = second compound 10 µM, first compound 1 µM
[30] = second compound 10 µM, first compound 3.16 µM
[31] = second compound 0.1 µM, first compound 10 µM
[32] = second compound 0.316 µM, first compound 10 µM
[33] = second compound 1 µM, first compound 10 µM
[34] = second compound 3.16 µM, first compound 10 µM
[35] = second compound 10 µM, first compound 10 µM
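Note: compound exposure lasted 7 days before the readout.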
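Throughout, for viability, T/C: 100% = DMSO vehicle control viability.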

Compound	IC50 (second compound 0.1 µM)	IC50 (second compound 0.316 µM)	IC50 (second compound 1 µM)	IC50 (second compound 3.16 µM)	IC50 (second compound 10 µM)	viability, T/C [2]	viability, T/C [3]	viability, T/C [4]	viability, T/C [5]	viability, T/C [6]	viability, T/C [8]	viability, T/C [9]	viability, T/C [10]	viability, T/C [11]	viability, T/C [14]	viability, T/C [15]	viability, T/C [20]	viability, T/C [21]	viability, T/C [26]	viability, T/C [27]	further results
CC(=O)OC12COC1CC(O)C1(C)C(=O)C(O)C3=C(C)C(OC(=O)C(O)C(NC(=O)OC(C)(C)C)c4ccccc4)CC(O)(C(OC(=O)c4ccccc4)C21)C3(C)C (stereo not given) + C=CC(=O)N1CCN(c2nc(=O)n(-c3c(C)ccnc3C(C)C)c3nc(-c4c(O)cccc4F)c(F)cc23)C(C)C1	> 3.16 µM	> 3.16 µM	> 3.16 µM	> 3.16 µM	> 3.16 µM	96.3%	83.3%	82.9%	84.2%	102%	116%	110%	77.6%	110%	106%	103%	93.9%	91.1%	116%	98.7%	viability, T/C [1]: 93.1%; viability, T/C [7]: 94.4%; viability, T/C [12]: 119%; viability, T/C [13]: 102%; viability, T/C [16]: 81%; viability, T/C [17]: 117%; viability, T/C [18]: 90.6%; viability, T/C [19]: 103%; viability, T/C [22]: 96.8%; viability, T/C [23]: 99.6%; viability, T/C [24]: 113%; viability, T/C [25]: 87.1%; viability, T/C [28]: 110%; viability, T/C [29]: 116%; viability, T/C [30]: 113%
CN(C)C/C=C/C(=O)Nc1cc2c(Nc3ccc(F)c(Cl)c3)ncnc2cc1O[C@H]1CCOC1 + C=CC(=O)N1CCN(c2nc(=O)n(-c3c(C)ccnc3C(C)C)c3nc(-c4c(O)cccc4F)c(F)cc23)C(C)C1	> 0.1 µM	> 0.1 µM	> 0.1 µM	> 0.1 µM	> 0.1 µM	115%	117%				117%	98.6%			84.9%	96.5%	126%	105%	110%	108%	viability, T/C (second compound 0.1 µM, first compound 0.000316 µM): 103%; viability, T/C (second compound 0.1 µM, first compound 0.001 µM): 91.6%; viability, T/C (second compound 0.1 µM, first compound 0.00316 µM): 76.1%; viability, T/C [1]: 83.5%; viability, T/C (second compound 0.316 µM, first compound 0.000316 µM): 97.5%; viability, T/C (second compound 0.316 µM, first compound 0.001 µM): 105%; viability, T/C (second compound 0.316 µM, first compound 0.00316 µM): 95.1%; viability, T/C [7]: 96.1%; viability, T/C (second compound 1 µM, first compound 0.000316 µM): 110%; viability, T/C (second compound 1 µM, first compound 0.001 µM): 121%; viability, T/C (second compound 1 µM, first compound 0.00316 µM): 83.7%; viability, T/C [13]: 90.8%; viability, T/C (second compound 3.16 µM, first compound 0.000316 µM): 138%; viability, T/C (second compound 3.16 µM, first compound 0.001 µM): 128%; viability, T/C (second compound 3.16 µM, first compound 0.00316 µM): 117%; viability, T/C [19]: 95%; viability, T/C (second compound 10 µM, first compound 0.000316 µM): 146%; viability, T/C (second compound 10 µM, first compound 0.001 µM): 138%; viability, T/C (second compound 10 µM, first compound 0.00316 µM): 119%; viability, T/C [25]: 99.2%
COC(=O)c1ccc2c(C(=Nc3ccc(N(C)C(=O)CN4CCN(C)CC4)cc3)c3ccccc3)c(O)[nH]c2c1 + C=CC(=O)N1CCN(c2nc(=O)n(-c3c(C)ccnc3C(C)C)c3nc(-c4c(O)cccc4F)c(F)cc23)C(C)C1	1.34 µM	1.08 µM	1.05 µM	0.922 µM	0.984 µM	107%	100%	90.5%	67%	0.52%	120%	103%	84.8%	63.4%	129%	116%	121%	134%	119%	103%	viability, T/C [31]: 0.48%; viability, T/C [12]: 0.81%; viability, T/C [32]: 0.29%; viability, T/C [16]: 82.8%; viability, T/C [17]: 65.8%; viability, T/C [18]: 0.56%; viability, T/C [33]: 0.21%; viability, T/C [22]: 82.8%; viability, T/C [23]: 56.4%; viability, T/C [24]: 0.33%; viability, T/C [34]: 0.22%; viability, T/C [28]: 103%; viability, T/C [29]: 50%; viability, T/C [30]: 0.49%; viability, T/C [35]: 0.31%
O=C(c1cc(Cc2n[nH]c(=O)c3ccccc23)ccc1F)N1CCN(C(=O)C2CC2)CC1 + C=CC(=O)N1CCN(c2nc(=O)n(-c3c(C)ccnc3C(C)C)c3nc(-c4c(O)cccc4F)c(F)cc23)C(C)C1	> 10 µM	> 10 µM	> 10 µM	> 10 µM	> 10 µM	94.3%	87%	82.3%	97.7%	101%	110%	108%	81.9%	83.6%	88%	103%	105%	115%	89.2%	102%	viability, T/C [31]: 85.1%; viability, T/C [12]: 93.9%; viability, T/C [32]: 97.3%; viability, T/C [16]: 113%; viability, T/C [17]: 100%; viability, T/C [18]: 88.2%; viability, T/C [33]: 92.2%; viability, T/C [22]: 110%; viability, T/C [23]: 89.9%; viability, T/C [24]: 107%; viability, T/C [34]: 112%; viability, T/C [28]: 113%; viability, T/C [29]: 111%; viability, T/C [30]: 102%; viability, T/C [35]: 99.6%
